# Data published in patent US9593146B2, “CD44v6-derived peptides for treating metastasizing cancer” (AMCURE GMBH, priority 2012, dated 2017).
# Residues, ends and D or L forms follow the SMILES beside them. No end group written: not given here. *: point of attachment. PEG2000 = polyethylene glycol with a molecular weight of 2000 Da; DOTA = O=C(O)CN1CCN(CC(=O)O)CCN(CC(=O)*)CCN(CC(=O)O)CC1; Myristoyl = CCCCCCCCCCCCCC(=O)*
# Key:
# BSp73ASs6 cells [1] = assay: Rat syngeneic model, subcutaneous BSp73ASs6 tumor, metastasis formation; format: in vivo; settings: 200 μg per injection, intra-tumoral or intravenously three times a week, start after one week of tumor growth
# Procedure: In the case of the rat syngeneic model, 1×10^6 pancreatic cells (BSp73AS and its transfectants) were subcutaneously injected into the right posterior flank of the animals. Tumors developed for four weeks. During this time period animals injected with BSp73ASs6 cells expressing Met-shRNA or control-shRNA received doxycycline in the drinking water. At the end of the experiment, primary tumors were isolated. Lungs and axillary lymph nodes were analyzed. The tissues were incubated for 24 h in a zinc-fixative (0.5 g calcium acetate, 5.0 g zinc acetate, 5.0 g zinc chloride, in 1 L 0.1 M Tris pH 7.4) and embedded in paraffin for further analysis. In case of peptide or antibody treatment tumors developed for one week before the first treatment. Where indicated, animals received 200 μg of peptide or antibody per injection three times per week for four weeks. Tumor growth was monitored weekly using a caliper. Animals were killed at day 28 or 30 after start of the treatment.
# For histo-morphological analysis paraffin-embedded sections of lungs were stained with hematoxylin and eosin and periodic acid-Schiff (H&E or PAS). Serial sections of the whole tissue blocks were examined by analyzing slices every 20 μm; in each slice, the presence and the extension of the metastatic deposit was assessed, according to the procedure routinely used by pathologists to evaluate the presence of micro-metastases.
# BSp73ASs6 cells [2] = assay: Apoptosis in established lung metastases (cleaved Caspase-3, cleaved Caspase-8), BSp73ASs6 rat model; format: in vivo; settings: injection every second day
# Procedure: 7 μm thick paraffin sections were deparaffinized and rehydrated. For P-Met staining antigen unmasking was achieved by boiling the slides in 1 mM EDTA pH 8.0 followed by incubation for 15 minutes at a sub-boiling temperature, for CD31 staining the sections were treated with Proteinase K (8 μg/ml) for 10 min at 37° C. For immunofluorescence staining of P-Met, unspecific binding was blocked with 5% goat serum (DAKO, Glostrup, Denmark) (diluted in 1×PBS/0.3% Triton X-100) for 60 minutes. In the case of immunohistochemistry, endogenous peroxidases were at first blocked with 3% H2O2 in PBS followed by incubation with biotin blocking system (Dako, Glostrup, Denmark) and then unspecific binding was inhibited by incubation with 5% FCS in PBS. The sections were incubated with the P-Met antibody (D26, dilution 1:50 in 1×PBS/1% BSA/0.3% Triton X-100), Met antibody (C-28, dilution 1:50), GFP antibody (sc-101525, dilution 1:50) or CD31 antibody (5 μg/ml) over night or VFF18 (5 μg/ml) o/n at 4° C. After washing in PBS the sections were incubated with Alexa Fluor R 546 goat anti-rabbit (in case of immunofluorescence P-Met and Met staining, dilution 1:500) or a biotinylated secondary antibody (for immunohistochemical stainings rabbit anti-rat antibody for VFF18 and CD31, goat anti-rabbit for P-Met, cleaved Caspase-3 and cleaved Caspase-8 and rabbit anti-mouse for GFP, dilution 1:500) for 45 minutes. For DAB (3,3′-diaminobenzidine) staining the sections were treated with a streptavidin-peroxidase conjugate (Dako, Glostrup, Denmark) and developed with DAB substrate system (3,3′-diaminobenzidine; Biozol, Eching, Germany). For immunofluorescence DAPI was used for nuclear staining.
# One hypothesis for the disappearance of metastases is that the peptides induce apoptosis of CD44v6-expressing metastatic cells in the secondary organs. In order to test this hypothesis, the experiment described above using the BSp73ASs6 cells was repeated. The cells were injected subcutaneously in syngeneic rats and the tumor was allowed to develop for three weeks. After that time the animals were separated in two groups of 10 animals that were injected either with the specific rat CD44v6 peptide or with the control peptide (mouse) every second day. One day following each injection of the peptide, the lungs of one animal were removed and apoptosis was measured using an antibody that detects the cleaved form of Caspase 3. […] Twelve days after injection of the CD44v6 peptide, less apoptosis was observed. […] From these experiments, it is concluded that the CD44v6 peptide induces apoptosis of metastatic cells.
# L3.6pl cells = assay: Human orthotopic model of pancreatic cancer, L3.6pl cells in nude mice; format: in vivo; settings: for metastatic spreading to the liver (side-by-side comparison): 20 μg per injection three times per week for 3 weeks (FIG. 24); for tumor growth compared to the control peptide (side-by-side comparison): 20 μg per injection three times per week for 3 weeks, 5 animals per group; for reduction of tumor size, ranking (side-by-side comparison): 20 μg per injection three times per week for 3 weeks (FIG. 23A); for variability in the individual tumor size within the group: 20 μg per injection three times per week for 3 weeks (FIG. 23B)
# Procedure: In the case of the human orthotopic model, L3.6pl pancreatic carcinoma cells (passage 24-26) were suspended in Hank's balanced salt solution (Invitrogen, Karlsruhe, Germany) after trypsinization. The cells were injected orthotopically in the pancreas of male nude mice as described (Bruns C J et al. (1999) Neoplasia 1(1):50-62). Two groups of 15 mice each were injected i.p. 7 days later with either the human v6 peptide respectively rat control peptide (20 μg). For all experiments described and depicted herein either the rat 14mer control peptide or the human 14mer peptide were used. All experiments were then repeated with the rat 5mer control peptide or the human 5mer peptide (N-R-W-H-E, SEQ ID NO: 2). […] The injection was repeated three times per week for 21 days. Two days after the last treatment the animals were killed. […]
# A comparison of different CD44v6 peptide derivatives was performed in animals bearing a orthotopic L3.6pl tumor. 10 groups of 5 animals each received a dose of 20 μg peptide per injection three times per week for 3 weeks with the compounds listed in Table 4. Three weeks after starting the treatment the animals were sacrificed and analyzed for macroscopic metastases and tumor volume.
# HT29 cells = assay: HGF induced scattering of HT29 cells; format: cell-based, human; settings: for HGF induced clustering / scattering of HT29 cells (FIG. 11): HGF 10 ng/ml, peptide pre-incubation (Example 2)
# Procedure: FIG. 17: The human CD44 v6 specific peptides block HGF induced cell scattering and invasion into matrigel. Scattering of HT29 cells was determined in 24-well plates. First, 4.5×10^4 cells were seeded at 37° C.; after 24 h the cells were serum starved for additional 24 h. the cells were either left untreated (control) or later treated with HGF (50 ng/ml) for 24 h. Where indicated the cells were treated with the v6 specific peptide (human v6 5mer, 10mer, 14mer) or control peptide prior to induction with HGF for 30 min. Pictures were made using phase contrast microscopy. Magnification 40×.
# A scatter assay was performed additionally. HT29 colon cancer cells were grown in medium containing 10% FCS. One day after seeding, the cells were starved. On the third day, the cells were induced with HGF (10 ng/ml) and pre-incubated with either no peptide, ctrl-peptides (SEQ ID No.: 15), non-pegylated v6-peptides (SEQ ID No.: 11) or the pegylated peptides, namely PEG-rat control peptide and PEG-rat CD44v6 peptide.
# Scattering of HT29 cells was determined in 24-well plates. First, 4×10^5 cells were seeded at 37° C.; the cells were either left untreated or 48 h later treated with HGF (50 ng/ml) for 24 h or with PEGylated or non-PEGylated peptides (100 ng/ml) prior to HGF induction for 30 min.
# Met and ERK = assay: HGF induced activation of Met and Erk in BSp73ASs6 cells (Western blot); format: cell-based, rat
# Procedure: Serum-starved cells (24 hours) were induced with the growth factor HGF (10 ng/mL) at 37° C. for 5 minutes. Where indicated, the cells were treated with peptides (100 ng/ml) prior to induction at 37° C. for 10 minutes (100 ng/mL CD44v6 peptide or control peptide). Following the induction with HGF, cells were washed with ice-cold phosphate-buffered saline (PBS). To detect activated Met and Erk, cells were lysed in sodium dodecyl sulfate (SDS)-sample buffer containing 100 mM dithiothreitol (DTT), boiled and subjected to western blot analysis using antibodies against phospho-Met and ERK. The loading controls were performed on the same blot after stripping (62.5 mM Tris, pH 6.8, 2% SDS, 0.8% DTT) by probing with the Met respectively ERK antibody. Blots were stained using the enhanced chemiluminescence system (Thermo Fisher Scientific, Schwerte, Germany). Bands in western blot analysis were quantified with the program Image J (National Institutes of Health).
# Rat pancreatic cancer cells BSp73ASs6 (also designated Ass6) were incubated for 10 min at 37° C. with either ctrl-peptides (SEQ ID No.: 15), non-pegylated v6-peptides (SEQ ID No.: 11) and increasing concentrations of the pegylated peptides, namely PEG-rat control peptide and PEG-rat CD44v6 peptide, before induction with HGF (10 ng/ml; 5 min at 37° C.).
# Activation of ERK and Met was determined by standard SDS and Western Blotting techniques using a phospho-Met and phospho-Erk specific antibody (phospho-Met clone D16 cell signaling, phospho-Erk p42/44 cell signaling)
# ASs6 cells, serum starved for 24 h, were induced with HGF (10 ng/ml) at 37° C. for 5 min. Where indicated, the cells were treated with PEGylated or non-PEGylated peptides before induction at 37° C. for 10 min (150 nM). Cells were washed with phosphate-buffered saline (PBS) and lysed in boiling sodium dodecyl sulfate (SDS)-sample buffer containing 100 mM dithiothreitol (DTT). Subsequently, lysates were subjected to Western blot analysis using antibodies against phosphorylated Mek and Erk (Cell signaling). The Mek and Erk loading control were performed on the same blot, stripped (62.5 mM Tris pH 6.8, 2% SDS, 0.8% DTT) and probed with the Mek and Erk antibodies. Blots were stained using the enhanced chemiluminescence system (Thermo Fisher Scientific).
molecule,measurement,setting,value
mouse control peptides: mouse CD44v6 peptide used as control in the rat syngeneic model (WFQNGWQGKNP) [reference compound],"metastasis (axillary lymph nodes, lungs)",BSp73ASs6 cells [1],numerous metastases were detected in the lungs
same,apoptosis (cleaved Caspase 3) in lung metastases,BSp73ASs6 cells [2],No apoptosis at all was detected
same,lung metastasis at day twenty-two,BSp73ASs6 cells [2],metastatic spreading was evident in the lungs
"Myr-Y-cy[KGNRWHEG] (Myristoyl-YKGNRWHEG; not fully specified (bridges); printed as Myr-Y-cy[KGNRWHEG]; also: cyclic, ring closure not given here) [Myr-Y-cycl 8 mer]",metastatic spreading to the liver (side-by-side comparison),L3.6pl cells,decrease of metastatic spreading
PEG840-KEQWFGNRWHEGYR-OH [PEG840 14-mer],metastatic spreading to the liver (side-by-side comparison),L3.6pl cells,decrease of metastatic spreading
same,tumor growth compared to the control peptide (side-by-side comparison),L3.6pl cells,significant reduction in tumor growth
DOTA-keqwfGNRWHEGyr [DOTA CD44v6-14 [daa7]],metastatic spreading to the liver (side-by-side comparison),L3.6pl cells,decrease of metastatic spreading
"cy[KGNRWHEG] (not fully specified (bridges); printed as cy[KGNRWHEG]; also: cyclic, ring closure not given here) [cycl. 8 mer]","reduction of tumor size, ranking (side-by-side comparison)",L3.6pl cells,strongest reduction of tumor size
same,variability in the individual tumor size within the group,L3.6pl cells,low variability
same,metastatic spreading to the liver (side-by-side comparison),L3.6pl cells,complete inhibition of metastasis
same,metastatic spreading at 2 and 20 μg per injection,"L3.6pl cells; 2 and 20 μg per injection, three times per week",blocked metastatic spreading
same,size / growth of the primary tumor (dose reduction study),"L3.6pl cells; three injections per week for 3 weeks, compared to control groups (FIG. 22C)",drastic effect on growth of the primary tumor
PEG2000-KEQWFGNRWHEGYR-OH [PEG2000 14-mer],"reduction of tumor size, ranking (side-by-side comparison)",L3.6pl cells,strongest reduction of tumor size
same,variability in the individual tumor size within the group,L3.6pl cells,low variability
same,metastatic spreading to the liver (side-by-side comparison),L3.6pl cells,decrease of metastatic spreading
same,tumor growth compared to the control peptide (side-by-side comparison),L3.6pl cells,significant reduction in tumor growth
Myr-KEQWFGNRWHEGYR (Myristoyl-KEQWFGNRWHEGYR) [Myristoyl-14-mer],tumor growth compared to the control peptide (side-by-side comparison),L3.6pl cells,no inhibitory effect on tumor growth
DOTA-KEQWFGNRWHEGYR ({DOTA}-KEQWFGNRWHEGYR; not fully specified (residue 14)) [DOTA CD44v6-14 [r^14]],metastatic spreading to the liver (side-by-side comparison),L3.6pl cells,complete inhibition of metastasis
DOTA-cy[KRWHE] [cycl 5 mer],"reduction of tumor size, ranking (side-by-side comparison)",L3.6pl cells,strongest reduction of tumor size
same,variability in the individual tumor size within the group,L3.6pl cells,low variability
same,metastatic spreading to the liver (side-by-side comparison),L3.6pl cells,complete inhibition of metastasis
"NAAAG [ctrl-peptides, reference compound]",HGF induced clustering / scattering of HT29 cells (FIG. 11),HT29 cells,not control peptides lead to dissociation and migration
"PEG-NEWQG [PEG-rat CD44v6 peptide, rat CD44v6 5mer pegylated at the N-terminal]",HGF induced clustering / scattering of HT29 cells (FIG. 11),HT29 cells,lead to dissociation and migration of cells away from these cell cluster
same,HGF induced scattering of HT29 cells,"HT29 cells; PEGylated peptides 100 ng/ml prior to HGF 50 ng/ml (Example 5, FIG. 11)",strongly inhibited
same,HGF induced Met-phosphorylation and Erk signaling,"Met and ERK; ASs6 cells, peptides with 2000 dalton PEG-chain, 150 nM 10 min before HGF 10 ng/ml (FIG. 10)",HGF completely failed to induce Met-phosphorylation and to activate Erk signaling
same,"Inhibition of ERK, pegylated vs. non-pegylated peptides",Met and ERK; BSp73ASs6 cells,even more efficient
same,HGF dependent activation of Met and ERK,"Met and ERK; pegylated rat 5mer, 10 min pre-incubation, HGF 10 ng/ml 5 min (FIGS. 9, 10)",efficient in inhibiting HGF dependent activation of Met and ERK
"N=C(N)NCCC[C@H](NC(=O)[C@@H](N)CC(N)=O)C(=O)N[C@@H](Cc1c[nH]c2ccccc12)C(=O)N[C@@H](Cc1c[nH]cn1)C(=O)N[C@@H](CCC(=O)O)C(=O)O [human 5mer, NRWHE] (H-NRWHE-OH; N-terminus and C-terminus assumed)",side effects in the animals,L3.6pl cells; 200 μg per injection i.p. three times per week,did not lead to side effects in the animals
